# Target: T1, LacZ (Escherichia coli, UniProt P00722)
# T1 construct: lacZ reporter of plasmid pDG268 (PganS-lacZ at amyE) expressed in B. subtilis YC1074 (ganR R20H, ganA deleted); cleared sonicated lysate
# Format: biochemical
# Conditions: 2.5 mM ONPG; Z buffer; qualitative
# T1 sequence (P00722 2-1024): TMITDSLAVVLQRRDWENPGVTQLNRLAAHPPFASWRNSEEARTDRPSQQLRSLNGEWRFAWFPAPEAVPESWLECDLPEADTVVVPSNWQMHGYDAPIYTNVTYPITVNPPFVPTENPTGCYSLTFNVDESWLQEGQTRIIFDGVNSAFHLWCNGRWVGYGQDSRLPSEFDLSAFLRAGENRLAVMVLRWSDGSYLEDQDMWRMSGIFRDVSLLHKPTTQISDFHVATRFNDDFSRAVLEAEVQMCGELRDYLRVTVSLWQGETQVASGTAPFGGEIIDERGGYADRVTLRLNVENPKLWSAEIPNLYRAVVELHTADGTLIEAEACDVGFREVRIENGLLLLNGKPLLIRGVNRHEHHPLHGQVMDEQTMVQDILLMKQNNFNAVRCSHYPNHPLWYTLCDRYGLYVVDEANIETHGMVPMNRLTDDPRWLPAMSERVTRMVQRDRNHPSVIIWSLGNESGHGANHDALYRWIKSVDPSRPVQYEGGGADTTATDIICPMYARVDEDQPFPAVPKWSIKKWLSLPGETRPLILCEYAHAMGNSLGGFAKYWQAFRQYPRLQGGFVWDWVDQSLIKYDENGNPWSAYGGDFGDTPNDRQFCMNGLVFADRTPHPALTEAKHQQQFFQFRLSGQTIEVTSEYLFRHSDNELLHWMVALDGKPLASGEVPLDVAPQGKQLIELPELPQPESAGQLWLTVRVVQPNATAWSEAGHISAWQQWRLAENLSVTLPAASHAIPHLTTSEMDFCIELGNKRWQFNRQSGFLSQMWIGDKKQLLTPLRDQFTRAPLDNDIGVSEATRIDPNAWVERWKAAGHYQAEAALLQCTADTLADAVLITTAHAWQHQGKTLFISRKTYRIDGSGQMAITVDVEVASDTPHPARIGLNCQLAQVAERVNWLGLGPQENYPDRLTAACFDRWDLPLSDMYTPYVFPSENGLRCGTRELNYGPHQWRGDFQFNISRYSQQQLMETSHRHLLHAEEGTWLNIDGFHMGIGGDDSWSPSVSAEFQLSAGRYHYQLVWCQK
structure (smiles),measurement,value
OC[C@H]1OC(O)[C@H](O)[C@@H](O)[C@H]1O (stereo partly shown) [galactose],% activity with 2.5-20 mM galactose,we only observed very weak inhibition of catalytic activities of LacZ
